This assay deals with His-Tagged hOGA (human O-GlcNAcase) (Homo sapiens (Human), UniProt O60502). Put plainly: Human O-GlcNAcase enzyme inhibition assay (OGA enzyme inhibition assay). Type of assay: biochemical. The settings on record: His-Tagged hOGA 20 nM, FL-GlcNAc 10 μM, 60 min at room temperature, pH 6.5; activity classes. As for the experimental part:
Example B01: Human O-GlcNAcase Enzyme Inhibition Assay
5 μl of the appropriate concentration of a solution of inhibitor in McIlvaine's Buffer (pH 6.5) in 2% DMSO (for a dose response curve calculation) is added into each well of a 384-well plate (Greiner, 781900). Then, 20 nM of His-Tagged hOGA and 10 μM of FL-GlcNAc (Fluorescein mono-beta-D-(2-deoxy-2-N-acetyl) glucopyranoside; Marker Gene Technologies Inc, M1485) were added to the 384-well plate for a final volume of 20 μl. After incubation for 60 min at room temperature, the reaction was terminated by the addition of 10 μL of stop buffer (200 mM glycine, pH 10.75). The level of fluorescence (Δexc 485 nm; (Δemm 520 nm) was read on a PHERAstar machine. The amount of fluorescence measured was plotted against the concentration of inhibitor to produce a sigmoidal dose response curve to calculate an IC50. All individual data was corrected by subtraction of the background (Thiamet 3 uM=100% inhibition) whilst 0.5% DMSO was considered as the control value (no inhibition).
Chain of His-Tagged hOGA (human O-GlcNAcase) (O60502 whole entry): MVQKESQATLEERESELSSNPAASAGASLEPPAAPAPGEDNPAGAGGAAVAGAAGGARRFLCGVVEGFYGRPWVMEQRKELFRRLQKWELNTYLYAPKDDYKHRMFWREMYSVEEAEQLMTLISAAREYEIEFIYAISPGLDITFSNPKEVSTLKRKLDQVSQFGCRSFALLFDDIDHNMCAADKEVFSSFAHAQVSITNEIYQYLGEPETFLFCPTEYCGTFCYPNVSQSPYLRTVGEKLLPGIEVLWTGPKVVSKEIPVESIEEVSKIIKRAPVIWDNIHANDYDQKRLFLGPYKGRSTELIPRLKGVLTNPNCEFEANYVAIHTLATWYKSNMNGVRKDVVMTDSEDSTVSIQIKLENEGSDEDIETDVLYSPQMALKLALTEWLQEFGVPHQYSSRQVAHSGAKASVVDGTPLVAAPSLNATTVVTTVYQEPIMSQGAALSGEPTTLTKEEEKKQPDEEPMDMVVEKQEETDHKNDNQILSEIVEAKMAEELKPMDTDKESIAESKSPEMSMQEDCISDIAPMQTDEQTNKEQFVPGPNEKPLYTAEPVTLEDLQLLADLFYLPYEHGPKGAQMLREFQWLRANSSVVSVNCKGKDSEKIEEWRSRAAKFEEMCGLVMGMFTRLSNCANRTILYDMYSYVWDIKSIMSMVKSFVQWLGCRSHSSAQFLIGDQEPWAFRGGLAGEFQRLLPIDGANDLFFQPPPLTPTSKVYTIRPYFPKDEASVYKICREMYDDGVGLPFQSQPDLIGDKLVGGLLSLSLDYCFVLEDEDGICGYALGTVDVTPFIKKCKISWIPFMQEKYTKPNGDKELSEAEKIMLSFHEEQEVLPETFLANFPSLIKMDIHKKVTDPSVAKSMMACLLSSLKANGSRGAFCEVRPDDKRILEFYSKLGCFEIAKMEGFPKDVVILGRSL
Consider “5-(1-(7-methoxy-2-methyl-1,2,4,5-tetrahydro-3H-benzo[d]azepin-3-yl)ethyl)benzo[d]thiazole [Example 19]”, for which the concentration for half-maximal inhibition (IC50) (as a rule, the concentration that inhibits the measured activity by half) is 50 to 200 nM.
Turning to `COc1ccc2c(c1Cl)CCN(C(C)c1ccc3scnc3c1)CC2` (racemic) [Example 10, 5-(1-(6-chloro-7-methoxy-1,2,4,5-tetrahydro-3H-benzo[d]azepin-3-yl)ethyl)benzo[d]thiazole], the IC50 was in the range of 50 to 200 nM.
With `COc1cc2c(cc1Cl)CCN(C(C)c1ccc3scnc3c1)CC2` (racemic) [Example 11, 5-(1-(7-chloro-8-methoxy-1,2,4,5-tetrahydro-3H-benzo[d]azepin-3-yl)ethyl)benzo[d]thiazole] the figure was below 50 nM; with `COc1ccc2c(c1)CCN(C(C)c1ccc3nccnc3c1)CC2` (racemic) [Example 12, 7-methoxy-3-(1-(quinoxalin-6-yl)ethyl)-2,3,4,5-tetrahydro-1H-benzo[d]azepine], below 50 nM.
As for `CC(c1ccc2scnc2c1)N1CCCc2cc(Br)ccc2C1` (racemic) [Example 13, 5-(1-(7-bromo-1,3,4,5-tetrahydro-2H-benzo[c]azepin-2-yl)ethyl)benzo[d]thiazole], the 50% inhibitory concentration (IC50) is 200 to 1000 nM.
In the case of `CC(c1ccc2scnc2c1)N1CCc2ccc(Br)cc2CC1` (racemic) [Example 14, 5-(1-(7-bromo-1,2,4,5-tetrahydro-3H-benzo[d]azepin-3-yl)ethyl)benzo[d]thiazole], the IC50 is below 50 nM.
With `CC(c1ccc2scnc2c1)N1CCCc2cc(C#N)ccc2C1` (racemic) [Example 15, 2-(1-(benzo[d]thiazol-5-yl)ethyl)-2,3,4,5-tetrahydro-1H-benzo[c]azepine-7-carbonitrile] the figure was 200 to 1000 nM; with `CC(c1ccc2scnc2c1)N1CCc2ccc(C#N)cc2CC1` (racemic) [Example 16, 3-(1-(benzo[d]thiazol-5-yl)ethyl)-2,3,4,5-tetrahydro-1H-benzo[d]azepine-7-carbonitrile], below 50 nM.
The value for `CC(c1ccc2scnc2c1)N1CCCc2cc(S(C)(=O)=O)ccc2C1` (racemic) [Example 17, 5-(1-(7-(methylsulfonyl)-1,3,4,5-tetrahydro-2H-benzo[c]azepin-2-yl)ethyl)benzo[d]thiazole] was 200 to 1000 nM; that for `CC(c1ccc2scnc2c1)N1CCc2ccc(S(C)(=O)=O)cc2CC1` (racemic) [Example 18, 5-(1-(7-(methylsulfonyl)-1,2,4,5-tetrahydro-3H-benzo[d]azepin-3-yl)ethyl)benzo[d]thiazole] was below 50 nM; that for `CC(c1ccc2scnc2c1)N1CCc2ccccc2CC1` (racemic) [Example 20, 5-(1-(1,2,4,5-tetrahydro-3H-benzo[d]azepin-3-yl)ethyl)benzo[d]thiazole] was below 50 nM.
The molecule `CC(c1ccc2scnc2c1)N1CCc2ccc(Oc3cccc(F)n3)cc2CC1` (racemic) [Example 23, 5-(1-(7-((6-fluoropyridin-2-yl)oxy)-1,2,4,5-tetrahydro-3H-benzo[d]azepin-3-yl)ethyl)benzo[d]thiazole] showed an IC50 below 50 nM.
With `CC(c1ccc2scnc2c1)N1CCc2ccc(OC(F)F)cc2CC1` (racemic) [Example 24, 5-(1-(7-(difluoromethoxy)-1,2,4,5-tetrahydro-3H-benzo[d]azepin-3-yl)ethyl)benzo[d]thiazole] the figure was below 50 nM.
With `CC(C)Oc1ccc2c(c1)CCN(C(C)c1ccc3scnc3c1)CC2` (racemic) [Example 25, 5-(1-(7-isopropoxy-1,2,4,5-tetrahydro-3H-benzo[d]azepin-3-yl)ethyl)benzo[d]thiazole] the figure was 50 to 200 nM; with `CC(C)COc1ccc2c(c1)CCN(C(C)c1ccc3scnc3c1)CC2` (racemic) [Example 26, 5-(1-(7-isobutoxy-1,2,4,5-tetrahydro-3H-benzo[d]azepin-3-yl)ethyl)benzo[d]thiazole], 200 to 1000 nM; with `COc1ccc2c(c1)CCN(Cc1ccc3nsnc3c1)C(C)C2` (racemic) [Example 28, 5-((7-methoxy-2-methyl-1,2,4,5-tetrahydro-3H-benzo[d]azepin-3-yl)methyl)benzo[c][1,2,5]thiadiazole], 1000 to 10000 nM.
For `COc1ccc2c(c1)CCN(Cc1ccc3scnc3c1)C(C)C2` (racemic) [Example 29, 5-((7-methoxy-2-methyl-1,2,4,5-tetrahydro-3H-benzo[d]azepin-3-yl)methyl)benzo[d]thiazole], the half-inhibitory concentration (IC50) is 1000 to 10000 nM.
With `COc1ccc2c(c1)CCN(Cc1ccc3c(c1)OCCO3)C(C)C2` (racemic) [Example 30, 3-((2,3-dihydrobenzo[b][1,4]dioxin-6-yl)methyl)-7-methoxy-2-methyl-2,3,4,5-tetrahydro-1H-benzo[d]azepine] the figure was 1000 to 10000 nM; with `COc1ccc2c(n1)CCN(C(C)c1ccc3scnc3c1)CC2` (racemic) [Example 31, 5-(1-(2-methoxy-5,6,8,9-tetrahydro-7H-pyrido[2,3-d]azepin-7-yl)ethyl)benzo[d]thiazole], below 50 nM; with `CC(c1ccc2scnc2c1)N1CCc2ccc(-c3ccccn3)cc2CC1` (racemic) [Example 32, 5-(1-(7-(pyridin-2-yl)-1,2,4,5-tetrahydro-3H-benzo[d]azepin-3-yl)ethyl)benzo[d]thiazole], 1000 to 10000 nM.
Molecule `CC(c1ccc2scnc2c1)N1CCc2ccc(O)cc2CC1` (racemic) [Example 33, 3-(1-(benzo[d]thiazol-5-yl)ethyl)-2,3,4,5-tetrahydro-1H-benzo[d]azepin-7-ol] showed an IC50 below 50 nM.
With `COc1ccc2c(c1)CCN(C(C)c1cnc3c(c1)OCC3)CC2` (racemic) [Example 34, 6-(1-(7-methoxy-1,2,4,5-tetrahydro-3H-benzo[d]azepin-3-yl)ethyl)-2,3-dihydrofuro[3,2-b]pyridine] the figure was below 50 nM; with `CC(c1ccc2scnc2c1)N1CCc2ccc(S(C)(=N)=O)cc2CC1` (racemic) [Example 37], below 50 nM; with `CC(=O)Nc1ccc2c(c1)CCN(C(C)c1ccc3scnc3c1)CC2` (racemic) [Example 43], below 50 nM.
Molecule `CC(c1ccc2scnc2c1)N1CCc2cc(S(C)(=O)=O)cnc2CC1` (racemic) [Example 51] yielded an IC50 below 50 nM.
`CC(c1ccc2scnc2c1)N1CCc2cc(S(C)(=N)=O)cnc2CC1` (racemic) [Example 52]: the IC50 was below 50 nM.
The molecule `Cc1cc(Oc2ccc3c(c2)CCN(C(C)c2ccc4scnc4c2)CC3)ccn1` (racemic) [Example 60] displayed an IC50 below 50 nM.
The value for `Cc1cc(Oc2ccc3c(c2)CCN(C(C)c2ccc4scnc4c2)CC3)nc(C)n1` (racemic) [Example 62] was below 50 nM; that for `CC(=O)Nc1cnc2c(c1)CCN(C(C)c1ccc3scnc3c1)CC2` (racemic) [Example 92] was below 50 nM.
The value for `CC(c1ccc2scnc2c1)N1CCCc2ncc([N+](=O)[O-])cc2C1` (racemic) [Example 106] was 200 to 1000 nM; that for `CC(=O)Nc1ccc2c(c1)CCCN(C(C)c1ccc3scnc3c1)C2` (racemic) [Example 107] was 200 to 1000 nM.
The value for `CC(c1ccc2scnc2c1)N1CCc2cnc(N)nc2CC1` (racemic) [Example 108] was below 50 nM; that for `CC(c1ccc2scnc2c1)N1CCc2ccc(-c3cnn(C)c3)cc2CC1` (racemic) [Example 109] was below 50 nM; that for `CC(c1ccc2scnc2c1)N1CCCc2cc(-c3cnn(C)c3)ccc2C1` (racemic) [Example 110] was 200 to 1000 nM.

The values above are taken from patent publication US11795165B2, “Tetrahydro-benzoazepine glycosidase inhibitors” (Asceneuron SA, priority 2018, dated 2023).
